Drawing on ChEMBL document CHEMBL5380794, “Discovery of a Potent and Selective STAT5 PROTAC Degrader with Strong Antitumor Activity In Vivo in Acute Myeloid Leukemia” (J Med Chem, 2023), this text covers Ki, DC50 and Emax for ten molecules.

The target in one test is T1, Signal transducer and activator of transcription 5A (Homo sapiens, UniProt P42229).
T1 sequence (P42229 whole entry): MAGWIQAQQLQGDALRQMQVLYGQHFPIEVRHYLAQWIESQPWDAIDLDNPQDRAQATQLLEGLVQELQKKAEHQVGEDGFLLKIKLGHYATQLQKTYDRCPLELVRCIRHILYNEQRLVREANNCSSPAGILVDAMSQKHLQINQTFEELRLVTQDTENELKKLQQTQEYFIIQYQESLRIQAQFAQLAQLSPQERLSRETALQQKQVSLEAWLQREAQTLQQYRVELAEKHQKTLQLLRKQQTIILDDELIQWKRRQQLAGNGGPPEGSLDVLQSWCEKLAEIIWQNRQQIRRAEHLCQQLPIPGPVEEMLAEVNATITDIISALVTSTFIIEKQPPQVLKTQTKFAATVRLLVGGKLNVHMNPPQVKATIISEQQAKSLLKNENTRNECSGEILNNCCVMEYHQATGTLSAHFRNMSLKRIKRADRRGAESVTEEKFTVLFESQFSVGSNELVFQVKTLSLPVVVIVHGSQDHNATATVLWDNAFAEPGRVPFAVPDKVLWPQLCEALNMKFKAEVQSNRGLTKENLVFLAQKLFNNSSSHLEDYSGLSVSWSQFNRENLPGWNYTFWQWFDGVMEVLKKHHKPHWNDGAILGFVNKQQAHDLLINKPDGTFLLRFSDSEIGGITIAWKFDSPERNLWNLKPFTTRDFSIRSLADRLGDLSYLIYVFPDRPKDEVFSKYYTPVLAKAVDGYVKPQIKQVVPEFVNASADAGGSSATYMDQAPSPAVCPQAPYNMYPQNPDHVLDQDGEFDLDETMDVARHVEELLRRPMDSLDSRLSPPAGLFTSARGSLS
The experiment in a line: Binding affinity to N-terminal 6his-tagged human STAT5A (136 to 705 residues) expressed in Escherichia coli BL21-DE3 rosetta cells assessed as inhibition constant by FP assay.
Conditions: not given; call rule not given here
As usually defined, the Ki is a measure of affinity in units of concentration, obtained from inhibition or displacement. As for `CC(C)(C)[C@H](NC(=O)c1cc2cc(C(F)(F)P(=O)(O)O)ccc2s1)C(=O)N1CCC[C@H]1C(=O)N(CCC(=O)NCCCC#Cc1cccc2c1CN(C1CCC(=O)NC1=O)C2=O)c1ccc2sccc2c1` (some centres not stated), the Ki came to 1.2 µM.

In another test the target is T2, Signal transducer and activator of transcription 5B (Homo sapiens, UniProt P51692).
T2 sequence (P51692 whole entry): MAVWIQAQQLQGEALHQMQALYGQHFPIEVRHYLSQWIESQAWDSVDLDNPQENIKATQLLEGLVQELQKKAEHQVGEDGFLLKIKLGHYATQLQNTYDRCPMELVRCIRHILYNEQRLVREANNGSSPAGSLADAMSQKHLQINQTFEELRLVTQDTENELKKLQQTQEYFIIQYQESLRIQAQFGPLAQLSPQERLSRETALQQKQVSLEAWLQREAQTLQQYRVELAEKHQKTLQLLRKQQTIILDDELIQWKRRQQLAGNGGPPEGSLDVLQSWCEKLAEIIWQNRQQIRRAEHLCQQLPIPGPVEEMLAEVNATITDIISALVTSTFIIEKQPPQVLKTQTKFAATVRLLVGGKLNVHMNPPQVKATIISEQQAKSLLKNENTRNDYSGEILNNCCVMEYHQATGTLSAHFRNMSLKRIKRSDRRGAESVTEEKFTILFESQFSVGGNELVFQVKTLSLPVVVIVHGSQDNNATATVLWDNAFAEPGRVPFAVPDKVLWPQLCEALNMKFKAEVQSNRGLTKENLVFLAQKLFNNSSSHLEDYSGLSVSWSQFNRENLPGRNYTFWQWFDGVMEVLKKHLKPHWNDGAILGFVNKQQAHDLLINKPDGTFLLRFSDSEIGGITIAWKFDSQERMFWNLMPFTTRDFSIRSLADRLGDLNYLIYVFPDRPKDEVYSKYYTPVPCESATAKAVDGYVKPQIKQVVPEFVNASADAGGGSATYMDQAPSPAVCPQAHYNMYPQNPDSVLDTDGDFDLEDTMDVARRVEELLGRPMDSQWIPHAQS
Briefly: Binding affinity to STAT5B (unknown origin) assessed as inhibition constant by FP assay.
Conditions: not given
Consider `CC(C)(C)[C@H](NC(=O)c1cc2cc(C(F)(F)P(=O)(O)O)ccc2s1)C(=O)N1CCC[C@H]1C(=O)N(CCC(=O)NCCCC#Cc1cccc2c1CN(C1CCC(=O)NC1=O)C2=O)c1ccc2sccc2c1` (some centres not stated), for which the Ki stood at 0.8 µM.

The next test has as its target T1, Signal transducer and activator of transcription 5A. The experiment in a line: Induction of STAT5 degradation in human SKNO-1 cells measured for 18 hrs by Western blot analysis.
Conditions: not given
The test is classed as cell-based. In general terms: In western blotting, separated proteins are transferred to a membrane and probed.
As usually defined, the DC50 is the midpoint of the concentration-degradation curve. In turn, `CN(CCCC#Cc1cccc2c1CN(C1CCC(=O)NC1=O)C2=O)C(=O)CCN(C(=O)[C@@H]1CCCN1C(=O)[C@@H](NC(=O)c1cc2cc(C(F)(F)P(=O)(O)O)ccc2s1)C(C)(C)C)c1ccc(Br)cc1` (some centres not stated) showed a DC50 of 0.19 µM.

In turn, `CC(C)(C)[C@H](NC(=O)c1cc2cc(C(F)(F)P(=O)(O)O)ccc2s1)C(=O)N1CCC[C@H]1C(=O)N(CCC(=O)N1CC(CCC#Cc2cccc3c2CN(C2CCC(=O)NC2=O)C3=O)C1)c1ccc(Br)cc1` (some centres not stated) yielded a DC50 of 4.2 µM.

In the case of `CC(C)(C)[C@H](NC(=O)c1cc2cc(C(F)(F)P(=O)(O)O)ccc2s1)C(=O)N1CCC[C@H]1C(=O)N(CCC(=O)NCCCCC#Cc1cccc2c1CN(C1CCC(=O)NC1=O)C2=O)c1ccc(Br)cc1` (some centres not stated), the DC50 is 0.5 µM.

The molecule `CC(C)(C)[C@H](NC(=O)c1cc2cc(C(F)(F)P(=O)(O)O)ccc2s1)C(=O)N1CCC[C@H]1C(=O)N(CCC(=O)N1CCC(Nc2cccc3c2CN(C2CCC(=O)NC2=O)C3=O)CC1)c1ccc(Br)cc1` (some centres not stated) gave a DC50 of over 5 µM.

For `CC(C)(C)[C@H](NC(=O)c1cc2cc(C(F)(F)P(=O)(O)O)ccc2s1)C(=O)N1CCC[C@H]1C(=O)N(CCC(=O)N1CCC(C#Cc2cccc3c2CN(C2CCC(=O)NC2=O)C3=O)CC1)c1ccc(Br)cc1` (some centres not stated), the DC50 is over 5 µM.

`CC(C)(C)[C@H](NC(=O)c1cc2cc(C(F)(F)P(=O)(O)O)ccc2s1)C(=O)N1CCC[C@H]1C(=O)N(CCC(=O)NCCCCCCC#Cc1cccc2c1CN(C1CCC(=O)NC1=O)C2=O)c1ccc(Br)cc1` (some centres not stated) registered a DC50 of 1.4 µM.

For `CC(C)(C)[C@H](NC(=O)c1cc2cc(C(F)(F)P(=O)(O)O)ccc2s1)C(=O)N1CCC[C@H]1C(=O)N(CCC(=O)N1CC(CC#Cc2cccc3c2CN(C2CCC(=O)NC2=O)C3=O)C1)c1ccc(Br)cc1` (some centres not stated), the DC50 was over 5 µM.

`CC(C)(C)[C@H](NC(=O)c1cc2cc(C(F)(F)P(=O)(O)O)ccc2s1)C(=O)N1CCC[C@H]1C(=O)N(CCC(=O)NCCC#Cc1cccc2c1CN(C1CCC(=O)NC1=O)C2=O)c1ccc(Br)cc1` (some centres not stated) returned a DC50 of over 5 µM.

Turning to `CC(C)(C)[C@H](NC(=O)c1cc2cc(C(F)(F)P(=O)(O)O)ccc2s1)C(=O)N1CCC[C@H]1C(=O)N(CCC(=O)NCCCCCC#Cc1cccc2c1CN(C1CCC(=O)NC1=O)C2=O)c1ccc(Br)cc1` (some centres not stated), the DC50 was determined as 1.1 µM.

Take `CC(C)(C)[C@H](NC(=O)c1cc2cc(C(F)(F)P(=O)(O)O)ccc2s1)C(=O)N1CCC[C@H]1C(=O)N(CCC(=O)NCCCC#Cc1cccc2c1CN(C1CCC(=O)NC1=O)C2=O)c1ccc2sccc2c1` (some centres not stated): the DC50 is 0.18 µM.

The next test addresses T3, Signal transducer and activator of transcription 6 (Homo sapiens, UniProt P42226).
T3 sequence (P42226 whole entry): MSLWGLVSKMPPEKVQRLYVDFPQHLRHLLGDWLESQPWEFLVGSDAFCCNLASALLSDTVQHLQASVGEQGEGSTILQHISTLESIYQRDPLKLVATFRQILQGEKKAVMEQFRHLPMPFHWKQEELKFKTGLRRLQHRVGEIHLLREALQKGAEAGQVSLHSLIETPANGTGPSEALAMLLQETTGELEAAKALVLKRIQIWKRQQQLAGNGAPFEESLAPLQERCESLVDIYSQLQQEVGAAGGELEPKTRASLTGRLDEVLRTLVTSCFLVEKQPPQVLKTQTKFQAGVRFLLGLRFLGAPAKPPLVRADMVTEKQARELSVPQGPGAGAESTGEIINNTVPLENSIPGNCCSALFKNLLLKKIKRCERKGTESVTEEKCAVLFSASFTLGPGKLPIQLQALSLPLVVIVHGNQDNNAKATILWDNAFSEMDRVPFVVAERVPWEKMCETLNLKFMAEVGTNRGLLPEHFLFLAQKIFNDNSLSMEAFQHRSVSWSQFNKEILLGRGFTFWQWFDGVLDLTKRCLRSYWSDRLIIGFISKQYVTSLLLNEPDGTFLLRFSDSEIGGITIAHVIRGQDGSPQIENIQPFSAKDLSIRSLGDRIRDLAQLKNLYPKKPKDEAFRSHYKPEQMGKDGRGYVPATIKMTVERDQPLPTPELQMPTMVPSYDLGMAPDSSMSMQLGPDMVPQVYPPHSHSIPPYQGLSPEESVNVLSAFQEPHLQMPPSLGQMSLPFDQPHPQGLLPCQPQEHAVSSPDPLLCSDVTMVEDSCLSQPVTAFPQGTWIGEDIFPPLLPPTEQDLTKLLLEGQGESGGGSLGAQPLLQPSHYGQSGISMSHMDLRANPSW
The experiment in a line: Induction of STAT6 degradation in human SKNO-1 cells measured for 18 hrs by Western blot analysis. The test is classed as cell-based.
Conditions: not given
Consider `CC(C)(C)[C@H](NC(=O)c1cc2cc(C(F)(F)P(=O)(O)O)ccc2s1)C(=O)N1CCC[C@H]1C(=O)N(CCC(=O)N1CC(CCC#Cc2cccc3c2CN(C2CCC(=O)NC2=O)C3=O)C1)c1ccc(Br)cc1` (some centres not stated), for which the 50% degradation concentration (DC50) result is recorded as “Not Active”.

As for `CC(C)(C)[C@H](NC(=O)c1cc2cc(C(F)(F)P(=O)(O)O)ccc2s1)C(=O)N1CCC[C@H]1C(=O)N(CCC(=O)N1CCC(Nc2cccc3c2CN(C2CCC(=O)NC2=O)C3=O)CC1)c1ccc(Br)cc1` (some centres not stated), the DC50 result is “Not Active”.

On to `CC(C)(C)[C@H](NC(=O)c1cc2cc(C(F)(F)P(=O)(O)O)ccc2s1)C(=O)N1CCC[C@H]1C(=O)N(CCC(=O)N1CCC(C#Cc2cccc3c2CN(C2CCC(=O)NC2=O)C3=O)CC1)c1ccc(Br)cc1` (some centres not stated), for which the DC50 entry is reported as “Not Active”.

`CC(C)(C)[C@H](NC(=O)c1cc2cc(C(F)(F)P(=O)(O)O)ccc2s1)C(=O)N1CCC[C@H]1C(=O)N(CCC(=O)N1CC(CC#Cc2cccc3c2CN(C2CCC(=O)NC2=O)C3=O)C1)c1ccc(Br)cc1` (some centres not stated): the DC50 entry is “Not Active”.

Still in this test, the particulars now being: read-out: DC50.
On to `CN(CCCC#Cc1cccc2c1CN(C1CCC(=O)NC1=O)C2=O)C(=O)CCN(C(=O)[C@@H]1CCCN1C(=O)[C@@H](NC(=O)c1cc2cc(C(F)(F)P(=O)(O)O)ccc2s1)C(C)(C)C)c1ccc(Br)cc1` (some centres not stated), for which the DC50 was over 5 µM.

`CC(C)(C)[C@H](NC(=O)c1cc2cc(C(F)(F)P(=O)(O)O)ccc2s1)C(=O)N1CCC[C@H]1C(=O)N(CCC(=O)NCCCCC#Cc1cccc2c1CN(C1CCC(=O)NC1=O)C2=O)c1ccc(Br)cc1` (some centres not stated): the DC50 is over 5 µM.

On to `CC(C)(C)[C@H](NC(=O)c1cc2cc(C(F)(F)P(=O)(O)O)ccc2s1)C(=O)N1CCC[C@H]1C(=O)N(CCC(=O)NCCCCCCC#Cc1cccc2c1CN(C1CCC(=O)NC1=O)C2=O)c1ccc(Br)cc1` (some centres not stated), for which the DC50 is over 5 µM.

`CC(C)(C)[C@H](NC(=O)c1cc2cc(C(F)(F)P(=O)(O)O)ccc2s1)C(=O)N1CCC[C@H]1C(=O)N(CCC(=O)NCCC#Cc1cccc2c1CN(C1CCC(=O)NC1=O)C2=O)c1ccc(Br)cc1` (some centres not stated): the DC50 is over 5 µM.

As for `CC(C)(C)[C@H](NC(=O)c1cc2cc(C(F)(F)P(=O)(O)O)ccc2s1)C(=O)N1CCC[C@H]1C(=O)N(CCC(=O)NCCCCCC#Cc1cccc2c1CN(C1CCC(=O)NC1=O)C2=O)c1ccc(Br)cc1` (some centres not stated), the DC50 is over 5 µM.

A further test has as its target T4, Signal transducer and activator of transcription 5A (Homo sapiens) (UniProt P42229).
T4 sequence (whole entry): T1 sequence (P42229 whole entry)
Briefly: Induction of STAT5 degradation in human SKNO-1 cells assessed as maximal degradation at 0.05 to 5 uM measured for 18 hrs by Western blot analysis relative to control. The test is classed as cell-based. The note with it: dose 0.05-5 µM.
The Emax is the greatest response seen or fitted, relative to the assay's reference. `CN(CCCC#Cc1cccc2c1CN(C1CCC(=O)NC1=O)C2=O)C(=O)CCN(C(=O)[C@@H]1CCCN1C(=O)[C@@H](NC(=O)c1cc2cc(C(F)(F)P(=O)(O)O)ccc2s1)C(C)(C)C)c1ccc(Br)cc1` (some centres not stated): the Emax is over 95%.
